According to US10421750B2, “Substituted morpholine derivatives having activity against pain” (ESTEVE PHARMACEUTICALS, S.A., priority 2015, dated 2019):

The molecules below were run against human σ1 receptor (Homo sapiens (Human), UniProt Q99720) (assay: Human σ1 receptor radioligand assay ([3H](+)-pentazocine, transfected HEK-293 membranes)). Conditions: binding to the σ1 receptor expressed as Ki, [3H](+)-pentazocine 5 nM.
Sequence of human σ1 receptor (Q99720 whole entry): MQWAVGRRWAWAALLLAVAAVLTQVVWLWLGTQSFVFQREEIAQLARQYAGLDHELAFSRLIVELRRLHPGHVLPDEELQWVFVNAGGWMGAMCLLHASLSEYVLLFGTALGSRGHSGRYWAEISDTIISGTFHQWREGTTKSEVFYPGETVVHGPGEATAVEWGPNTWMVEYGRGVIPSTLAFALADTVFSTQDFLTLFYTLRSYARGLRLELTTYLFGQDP
Procedure: Human σ1 Receptor Radioligand Assay
To investigate binding properties of test compounds to human σ1 receptor, transfected HEK-293 membranes and [^3H](+)-pentazocine (Perkin Elmer, NET-1056), as the radioligand, were used. The assay was carried out with 7 μg of membrane suspension, 5 nM of [^3H](+)-pentazocine in either absence or presence of either buffer or 10 μM Haloperidol for total and non-specific binding, respectively. Binding buffer contained Tris-HCl 50 mM at pH 8. Plates were incubated at 37° C. for 120 minutes. After the incubation period, the reaction mix was then transferred to MultiScreen HTS, FC plates (Millipore), filtered and plates were washed 3 times with ice-cold 10 mM Tris-HCL (pH7.4). Filters were dried and counted at approximately 40% efficiency in a MicroBeta scintillation counter (Perkin-Elmer) using EcoScint liquid scintillation cocktail
In the case of `CC(C)CCN1CCC(C2CN(C(=O)c3ccccc3)CC3(CC3)O2)CC1` (stereo not shown) [Example 51, (5-(1-Isopentylpiperidin-4-yl)-4-oxa-7-azaspiro[2.5]octan-7-yl)(phenyl)methanone], the Ki is reported as under 100 nM.
`CCN1C[C@H](C2CCN(Cc3ccccc3)CC2)O[C@H](C)C1=O` [Example 26, (2R,6S)-6-(1-benzylpiperidin-4-yl)-4-ethyl-2-methylmorpholin-3-one] showed a Ki of at least 500 nM.
`CCN1C[C@H](C2CCN(Cc3ccc(C#N)cc3)CC2)O[C@@H](C)C1=O` [Example 32, 4-((4-((2S,6S)-4-ethyl-6-methyl-5-oxomorpholin-2-yl)piperidin-1-yl)methyl)benzonitrile] gave a Ki of at least 500 nM.
Work on `CCN1CC(C2CCN(Cc3ccc(C#N)cc3)CC2)OC2(CC2)C1=O` (stereo not shown) [Example 36, 4-((4-(7-ethyl-8-oxo-4-oxa-7-azaspiro[2.5]octan-5-yl)piperidin-1-yl)methyl)benzonitrile] yielded a Ki of at least 500 nM.
For `CCN1CC(C2CCN(Cc3ccccc3)CC2)OCC1=O` (stereo not shown) [Example 41, 6-(1-benzylpiperidin-4-yl)-4-ethylmorpholin-3-one], the Ki was under 100 nM.
`CCN1C[C@H](C2CCN(Cc3ccccc3)CC2)O[C@@H](C)C1=O` [Example 24, (2S,6S)-6-(1-benzylpiperidin-4-yl)-4-ethyl-2-methylmorpholin-3-one] gave a Ki of at least 500 nM.
In the case of `CC(C)N1CC(C2CCN(CCc3ccccc3)CC2)OC2(CC2)C1=O` (stereo not shown) [Example 8, 7-isopropyl-5-(1-phenethylpiperidin-4-yl)-4-oxa-7-azaspiro[2.5]octan-8-one], the Ki is reported as under 500 nM.
With `COc1ccc(CN2CC(C3CCN(CCC(C)C)CC3)OC3(CC3)C2=O)cc1` (stereo not shown) [Example 16, 5-(1-isopentylpiperidin-4-yl)-7-(4-methoxybenzyl)-4-oxa-7-azaspiro[2.5]octan-8-one] the Ki was under 500 nM.
`CCN1CC(C2CCN(Cc3ccc(F)cc3)CC2)OC2(CC2)C1=O` (stereo not shown) [Example 35, 7-ethyl-5-(1-(4-fluorobenzyl)piperidin-4-yl)-4-oxa-7-azaspiro[2.5]octan-8-one] showed a Ki of at least 500 nM.
Work on `CC(C)N1CC(C2CCN(Cc3ccccc3)CC2)OC2(CC2)C1=O` (stereo not shown) [Example 37, 5-(1-benzylpiperidin-4-yl)-7-isopropyl-4-oxa-7-azaspiro[2.5]octan-8-one] yielded a Ki of at least 500 nM.
For `CCN1C[C@@H](C2CCN(Cc3ccc(C#N)cc3)CC2)O[C@H](C)C1=O` [Example 33, 4-((4-((2R,6R)-4-ethyl-6-methyl-5-oxomorpholin-2-yl)piperidin-1-yl)methyl)benzonitrile], the Ki was at least 500 nM.
`CCN1C[C@H](C2CCN(Cc3ccc(F)cc3)CC2)O[C@H](C)C1=O` [Example 30, (2R,6S)-4-ethyl-6-(1-(4-fluorobenzyl)piperidin-4-yl)-2-methylmorpholin-3-one] was tested, and the Ki was at least 500 nM.
`O=C1N(c2ccccc2)CC(C2CCN(CCc3ccccc3)CC2)OC12CC2` (stereo not shown) [Example 9, 5-(1-Phenethylpiperidin-4-yl)-7-phenyl-4-oxa-7-azaspiro[2.5]octan-8-one] gave a Ki of at least 500 nM.
Molecule `COc1ccc(CN2CC(C3CCN(Cc4ccccc4)CC3)OCC2=O)cc1` (stereo not shown) [Example 21, 6-(1-benzylpiperidin-4-yl)-4-(4-methoxybenzyl)morpholin-3-one] has a Ki of under 500 nM.
`COc1ccc(CN2CC(C3CCN(Cc4ccccc4)CC3)OC3(CC3)C2)cc1` (stereo not shown) [Example 12, 5-(1-benzylpiperidin-4-yl)-7-(4-methoxybenzyl)-4-oxa-7-azaspiro[2.5]octane] gave a Ki of under 100 nM.
With `CC(C)N1CC(C2CCN(Cc3ccc(C#N)cc3)CC2)OC2(CC2)C1=O` (stereo not shown) [Example 39, 4-((4-(7-isopropyl-8-oxo-4-oxa-7-azaspiro[2.5]octan-5-yl)piperidin-1-yl)methyl)benzonitrile] the Ki was at least 500 nM.
Work on `COc1ccc(CN2CC(C3CCN(CCc4ccccc4)CC3)OC3(CC3)C2)cc1` (stereo not shown) [Example 13, 7-(4-methoxybenzyl)-5-(1-phenethylpiperidin-4-yl)-4-oxa-7-azaspiro[2.5]octane] yielded a Ki of at least 500 nM.
`CC(C)N1CC(C2CCN(Cc3ccc(F)cc3)CC2)OC2(CC2)C1=O` (stereo not shown) [Example 38, 5-(1-(4-fluorobenzyl)piperidin-4-yl)-7-isopropyl-4-oxa-7-azaspiro[2.5]octan-8-one] showed a Ki of at least 500 nM.
For `O=C1N(c2ccccc2)CC(C2CCN(Cc3ccccc3)CC2)OC12CC2` (stereo not shown) [Example 10, 5-(1-benzylpiperidin-4-yl)-7-phenyl-4-oxa-7-azaspiro[2.5]octan-8-one], the Ki was under 500 nM.
Molecule `CCN1CCC(C2CN(Cc3ccc(OC)cc3)C(=O)C3(CC3)O2)CC1` (stereo not shown) [Example 6, 5-(1-ethylpiperidin-4-yl)-7-(4-methoxybenzyl)-4-oxa-7-azaspiro[2.5]octan-8-one] has a Ki of at least 500 nM.
With `CCN1CCOC(C2CCN(Cc3ccccc3)CC2)C1` (stereo not shown) [Example 50, 2-(1-benzylpiperidin-4-yl)-4-ethylmorpholine] the Ki was under 100 nM.
Molecule `CCN1C[C@H](C2CCN(Cc3ccc(F)cc3)CC2)O[C@@H](C)C1=O` [Example 28, (2S,6S)-4-ethyl-6-(1-(4-fluorobenzyl)piperidin-4-yl)-2-methylmorpholin-3-one] has a Ki of at least 500 nM.
`COc1ccc(CN2CCOC(C3CCN(Cc4ccccc4)CC3)C2)cc1` (stereo not shown) [Example 49, 2-(1-benzylpiperidin-4-yl)-4-(4-methoxybenzyl)morpholine] gave a Ki of under 100 nM.
`CCN1C[C@@H](C2CCN(Cc3ccc(F)cc3)CC2)O[C@H](C)C1=O` [Example 29, (2R,6R)-4-ethyl-6-(1-(4-fluorobenzyl)piperidin-4-yl)-2-methylmorpholin-3-one] was tested, and the Ki was at least 500 nM.
`CCN1CC(C2CN(CCc3ccccc3)C2)OC2(CC2)C1=O` (stereo not shown) [Example 43, 7-ethyl-5-(1-phenethylazetidin-3-yl)-4-oxa-7-azaspiro[2.5]octan-8-one] gave a Ki of under 500 nM.
`COc1ccc(CN2CC(C3CCN(CC(C)C)CC3)OC3(CC3)C2)cc1` (stereo not shown) [Example 46, 5-(1-isobutylpiperidin-4-yl)-7-(4-methoxybenzyl)-4-oxa-7-azaspiro[2.5]octane] gave a Ki of under 500 nM.
For `CCN1C[C@@H](C2CCN(Cc3ccc(C#N)cc3)CC2)O[C@@H](C)C1=O` [Example 31, 4-((4-((2R,6S)-4-ethyl-6-methyl-5-oxomorpholin-2-yl)piperidin-1-yl)methyl)benzonitrile], the Ki was at least 500 nM.
Molecule `O=C(c1ccccc1)N1CC(C2CCN(CCc3ccccc3)CC2)OC2(CC2)C1` (stereo not shown) [Example 2, (5-(1-phenethylpiperidin-4-yl)-4-oxa-7-azaspiro[2.5]octan-7-yl)(phenyl)methanone] has a Ki of under 500 nM.
